# Experimental data: patent publication US20260241049A1, “Radiopharmaceutical Compositions Targeting Glypican-3 and Uses Thereof” (RayzeBio, Inc., priority 2023, published 2026)
# Starred links: 1 amine or outer side, 2 acyl side, 3 side chain; linkers in the order of their positions; H or OH if unused. Positions of bridges follow the written chain, without caps; N, C: chain ends. Non-standard residues stand in square brackets, D forms with d. Residues, ends and D or L forms follow the SMILES beside them. Groups on a side chain read outwards from the residue. Primed or numbered codes have the meaning given here. *: point of attachment. MeHseMe(3) = N-methyl-O-methyl-homoserine, 4-methoxy-2-(methylamino)butanoic acid, COCC[C@@H](C(=O)[*:2])N(C)[*:1]; DOTA‑Lu″ = DOTA chelate of lutetium (175Lu), attached as an amide to the side-chain amine; Phe(4-(1-Me-pyrazol-4-yl)) = Cn1cc(-c2ccc(C[C@H](N)C(=O)O)cc2)cn1; NMeAla(isoquinolin-7-yl) = CN[C@@H](Cc1ccc2ccncc2c1)C(=O)O; DOTA = O=C(O)CN1CCN(CC(=O)O)CCN(CC(=O)*)CCN(CC(=O)O)CC1; CH2CON(CH2CH2)2NCH2COOH = O=C(O)CN1CCN(C(=O)C*)CC1; Phe(4-CH2COOH) = N[C@@H](Cc1ccc(CC(=O)O)cc1)C(=O)O; 3Pal(6-Ph) = N[C@@H](Cc1ccc(-c2ccccc2)nc1)C(=O)O; Phe(4-COOH) = N[C@@H](Cc1ccc(C(=O)O)cc1)C(=O)O; Phe(4-CH2NH2) = NCc1ccc(C[C@H](N)C(=O)O)cc1; Piperazinyl(4-CH2COOH) = O=C(O)CN1CCN(*)CC1; NMe2Nal = CN[C@@H](Cc1ccc2ccccc2c1)C(=O)O; AEF = NCCOc1ccc(C[C@H](N)C(=O)O)cc1; NMeI = CC[C@H](C)[C@H](NC)C(=O)O; NMeQ = CN[C@@H](CCC(N)=O)C(=O)O; NMehSer = CN[C@@H](CCO)C(=O)O; NMeK = CN[C@@H](CCCCN)C(=O)O; NMeC = CN[C@@H](CS)C(=O)O; Carboxymethyl = O=C(O)C*; NMeA = CN[C@@H](C)C(=O)O; CO = O=C([*:1])[*:2]
# Molecular target: T1, Human Glypican3-Fc (ACRO Biosystems, GP3-H5258) (human, UniProt P51654 25-559)
# T1 construct: Bought fusion protein, captured in Methods B-2, B-3 and B-4; Catalogue number is printed only in Method B-2; not shown: Fc part of the bought fusion
# Experiment: SPR (Biacore T200), Method B-2: human Glypican3-Fc captured by anti-human Fc on CM3 chip, peptide as analyte
# Settings: not given
# Method: A CM3 sensor chip (Cytiva) was inserted into a Biacore T200 (Cytiva), primed three times with a running buffer: HBS-P-+, pH 7.4 (Cytiva), and equilibrated at a flow rate of 30 μL/min. Using the Anti-Fc Capture Kit (Cytiva), 50 LL each of 60 mM EDC solution (Cytiva) and 650 mM NHS solution (Cytiva) were mixed, and then reacted at a flow rate of 10 μL/min for 420 seconds, 150 μL of […] Anti-human IgG (Fc) Antibody solution was prepared by diluting with 10 mM acetic acid solution (pH 5.0), reacted at a flow rate of 10 μL/min for 420 seconds, and immobilized on a CM3 sensor chip. After immobilization, 1.0 M ethanolamine aqueous solution (Cytiva) was allowed to react for 420 seconds at a flow rate of 10 μL/min for capping. Human Glypican3-Fc (ACRO Biosystems, GP3-H5258) was allowed to react for 60 seconds at a flow rate of 10 μL/min. After capturing human Glypican3-Fc, a peptide solution prepared to 10 mM in DMSO solution was diluted with a running buffer to a final concentration of 10 μM. […] Using the above samples, peptide kinetics for Glypican3 was obtained by SPR measurement. Kinetics evaluation of Glypican3 was performed by SPR measurements at a flow rate of 10 μL/min. setting the association time to 120 seconds and the disassociation time to 600 seconds.
# (§1) The obtained data by Method B-1, Method B-2, Method B-3 and Method B-4 were analyzed by follow. Single Cycle Kinetics was used as the kinetics evaluation model, and curve fitting was performed using Biacore T200 Evaluation Software Version 3.0 (Cytiva).
row,Kd,Molecule
1,1.99 nM,{CH2CO}-[NMeK](DOTA‑Lu″)[MeHseMe(3)]D[NMeQ][Phe(4-COOH)]II[Phe(4-CH2COOH)][NMe2Nal]G[Phe(4-(1-Me-pyrazol-4-yl))][NMeC]-NH2 (thioether N-12) [Lu-C-22]
2,2.52 nM,{CH2CO}-[NMeQ][NMeQ]D[NMeK](DOTA‑Lu″)[Phe(4-COOH)]II[Phe(4-CH2COOH)][NMe2Nal]G[Phe(4-(1-Me-pyrazol-4-yl))][NMeC]-NH2 (thioether N-12) [Lu-C-26]

# Molecular target: Human Glypican3-Fc (Homo sapiens, UniProt P51654)
# Experiment: SPR binding to Glypican-3, Method B-2 (Glypican3-Fc captured by anti-human IgG (Fc) antibody on CM3 chip)
# Settings: SPR method B-2
# Method: A CM3 sensor chip (Cytiva) was inserted into a Biacore T200 (Cytiva), primed three times with a running buffer: HBS-P-+, pH 7.4 (Cytiva), and equilibrated at a flow rate of 30 μL/min. Using the Anti-Fc Capture Kit (Cytiva), 50 LL each of 60 mM EDC solution (Cytiva) and 650 mM NHS solution (Cytiva) were mixed, and then reacted at a flow rate of 10 μL/min for 420 seconds, 150 μL of […] Anti-human IgG (Fc) Antibody solution was prepared by diluting with 10 mM acetic acid solution (pH 5.0), reacted at a flow rate of 10 μL/min for 420 seconds, and immobilized on a CM3 sensor chip. After immobilization, 1.0 M ethanolamine aqueous solution (Cytiva) was allowed to react for 420 seconds at a flow rate of 10 μL/min for capping. Human Glypican3-Fc (ACRO Biosystems, GP3-H5258) was allowed to react for 60 seconds at a flow rate of 10 μL/min. After capturing human Glypican3-Fc, a peptide solution prepared to 10 mM in DMSO solution was diluted with a running buffer to a final concentration of 10 μM. After that, 5 serial dilution series (100 nM, 50 nM, 25 nM, 10 nM, 5 nM) of peptide solutions were prepared. Using the above samples, peptide kinetics for Glypican3 was obtained by SPR measurement. Kinetics evaluation of Glypican3 was performed by SPR measurements at a flow rate of 10 μL/min. setting the association time to 120 seconds and the disassociation time to 600 seconds.
# as §1, with “(Cytiva). The obtained sensorgram was subjected to curve fitting by the method of least squares and obtained KD values of the macrocyclic peptides in this disclosure for Glypican 3 protein are shown in Table 18.” for “(Cytiva).”
row,Molecule,Kd
1,CC[C@H](C)[C@@H]1NC(=O)[C@H](Cc2ccc(C(=O)O)cc2)NC(=O)[C@H](CCC(N)=O)N(C)C(=O)[C@H](CC(=O)O)NC(=O)[C@H](CCC(N)=O)N(C)C(=O)[C@H](CCC(N)=O)N(C)C(=O)CSC[C@@H](C(N)=O)N(C)C(=O)[C@H](Cc2ccc(-c3cnn(C)c3)cc2)NC(=O)CNC(=O)[C@H](Cc2ccc3ccccc3c2)N(C)C(=O)[C@H](Cc2ccc(OCCNC(=O)CN3CCN(CC(=O)O)CCN(CC(=O)O)CCN(CC(=O)O)CC3)cc2)NC(=O)[C@H]([C@@H](C)CC)NC1=O [Lu-C-28] ({CH2CO}-[NMeQ][NMeQ]D[NMeQ][Phe(4-COOH)]II[AEF](DOTA)[NMe2Nal]G[Phe(4-(1-Me-pyrazol-4-yl))][NMeC]-NH2; thioether N-12),1.8 nM
2,CC[C@H](C)[C@@H]1NC(=O)[C@H]([C@@H](C)OC)NC(=O)[C@H](Cc2ccc(C(=O)O)cc2)NC(=O)[C@H](CCC(N)=O)N(C)C(=O)[C@H](CC(=O)O)NC(=O)[C@H](CCOC)N(C)C(=O)[C@H](C)N(C)C(=O)CSC[C@@H](C(N)=O)N(C)C(=O)[C@H](Cc2ccc(-c3ccccc3)nc2)NC(=O)CNC(=O)[C@H](Cc2ccc3ccccc3c2)N(C)C(=O)[C@H](Cc2ccc(OCCNC(=O)CN3CCN(CC(=O)O)CCN(CC(=O)O)CCN(CC(=O)O)CC3)cc2)NC1=O [Lu-C-44] ({CH2CO}-[NMeA][NMehSer](Me)D[NMeQ][Phe(4-COOH)]T(Me)I[AEF](DOTA)[NMe2Nal]G[3Pal(6-Ph)][NMeC]-NH2; thioether N-12),1 nM
3,CC[C@H](C)[C@@H]1NC(=O)[C@H]([C@@H](C)OC)NC(=O)[C@H](Cc2ccc(C(=O)O)cc2)NC(=O)[C@H](CCC(N)=O)N(C)C(=O)[C@H](CC(=O)O)NC(=O)[C@H]([C@@H](C)CC)N(C)C(=O)[C@H](CCCCNC(=O)CN2CCN(CC(=O)O)CCN(CC(=O)O)CCN(CC(=O)O)CC2)N(C)C(=O)CSC[C@@H](C(N)=O)N(C)C(=O)[C@H](Cc2ccc(-c3ccccc3)nc2)NC(=O)CNC(=O)[C@H](Cc2ccc3ccncc3c2)N(C)C(=O)[C@H](Cc2ccc(OCC(=O)O)cc2)NC1=O [Lu-C-30] ({CH2CO}-[NMeK](DOTA)[NMeI]D[NMeQ][Phe(4-COOH)]T(Me)IY(Carboxymethyl)[NMeAla(isoquinolin-7-yl)]G[3Pal(6-Ph)][NMeC]-NH2; thioether N-12),0.7 nM
4,CC[C@H](C)[C@@H]1NC(=O)[C@H](Cc2ccc(C(=O)O)cc2)NC(=O)[C@H](CCC(N)=O)N(C)C(=O)[C@H](CC(=O)O)NC(=O)[C@H]([C@@H](C)CC)N(C)C(=O)[C@H](CCCCNC(=O)[C@@H](Cc2ccccc2)NC(=O)CN2CCN(CC(=O)O)CCN(CC(=O)O)CCN(CC(=O)O)CC2)N(C)C(=O)CSC[C@@H](C(N)=O)N(C)C(=O)[C@H](Cc2ccc(-c3ccccc3)nc2)NC(=O)CNC(=O)[C@H](Cc2ccc3ccncc3c2)N(C)C(=O)[C@H](Cc2ccc(OCC(=O)O)cc2)NC(=O)[C@H]([C@@H](C)CC)NC1=O [Lu-C-41] ({CH2CO}-[NMeK]([dF-DOTA])[NMeI]D[NMeQ][Phe(4-COOH)]IIY(Carboxymethyl)[NMeAla(isoquinolin-7-yl)]G[3Pal(6-Ph)][NMeC]-NH2; thioether N-12),0.8 nM
5,CC[C@H](C)[C@@H]1NC(=O)[C@H](Cc2ccc(C(=O)O)cc2)NC(=O)[C@H](CCC(N)=O)N(C)C(=O)[C@H](CC(=O)O)NC(=O)[C@H](CCOC)N(C)C(=O)[C@H](CCCCNC(=O)CN2CCN(CC(=O)O)CCN(CC(=O)O)CCN(CC(=O)O)CC2)N(C)C(=O)CSC[C@@H](C(N)=O)N(C)C(=O)[C@H](Cc2ccc(-c3ccccc3)nc2)NC(=O)CNC(=O)[C@H](Cc2ccc3ccccc3c2)N(C)C(=O)[C@H](Cc2ccc(CC(=O)O)cc2)NC(=O)[C@H]([C@@H](C)CC)NC1=O [Lu-C-21] ({CH2CO}-[NMeK](DOTA)[NMehSer](Me)D[NMeQ][Phe(4-COOH)]II[Phe(4-CH2COOH)][NMe2Nal]G[3Pal(6-Ph)][NMeC]-NH2; thioether N-12),1.04 nM
6,CC[C@H](C)[C@@H]1NC(=O)[C@H](Cc2ccc(C(=O)O)cc2)NC(=O)[C@H](CCC(N)=O)N(C)C(=O)[C@H](CC(=O)O)NC(=O)[C@H]([C@@H](C)CC)N(C)C(=O)[C@H](CCCCNC(=O)[C@H](Cc2c[nH]cn2)NC(=O)CN2CCN(CC(=O)O)CCN(CC(=O)O)CCN(CC(=O)O)CC2)N(C)C(=O)CSC[C@@H](C(N)=O)N(C)C(=O)[C@H](Cc2ccc(-c3ccccc3)nc2)NC(=O)CNC(=O)[C@H](Cc2ccc3ccncc3c2)N(C)C(=O)[C@H](Cc2ccc(OCC(=O)O)cc2)NC(=O)[C@H]([C@@H](C)CC)NC1=O [Lu-C-34] ({CH2CO}-[NMeK]([His-DOTA])[NMeI]D[NMeQ][Phe(4-COOH)]IIY(Carboxymethyl)[NMeAla(isoquinolin-7-yl)]G[3Pal(6-Ph)][NMeC]-NH2; thioether N-12),0.8 nM

# Next, values leading:
row,Kd,Molecule
1,0.7 nM,CC[C@H](C)[C@@H]1NC(=O)[C@H]([C@@H](C)OC)NC(=O)[C@H](Cc2ccc(C(=O)O)cc2)NC(=O)[C@H](CCC(N)=O)N(C)C(=O)[C@H](CC(=O)O)NC(=O)[C@H](CCOC)N(C)C(=O)[C@H](CCC(N)=O)N(C)C(=O)CSC[C@@H](C(N)=O)N(C)C(=O)[C@H](Cc2ccc(-c3ccccc3)nc2)NC(=O)CNC(=O)[C@H](Cc2ccc3ccccc3c2)N(C)C(=O)[C@H](Cc2ccc(CNC(=O)N3CCN(CC(=O)O)CC3)cc2)NC1=O [Conjugate 2-20] ({CH2CO}-[NMeQ][NMehSer](Me)D[NMeQ][Phe(4-COOH)]T(Me)I[Phe(4-CH2NH2)]([CO-Piperazinyl(4-CH2COOH)])[NMe2Nal]G[3Pal(6-Ph)][NMeC]-NH2; thioether N-12)
2,0.5 nM,CC[C@H](C)[C@@H]1NC(=O)[C@H]([C@@H](C)OC)NC(=O)[C@H](Cc2ccc(C(=O)O)cc2)NC(=O)[C@H](CCC(N)=O)N(C)C(=O)[C@H](CC(=O)O)NC(=O)[C@H](CCOC)N(C)C(=O)[C@H](CCC(N)=O)N(C)C(=O)CSC[C@@H](C(N)=O)N(C)C(=O)[C@H](Cc2ccc(-c3ccccc3)nc2)NC(=O)CNC(=O)[C@H](Cc2ccc3ccccc3c2)N(C)C(=O)[C@H](Cc2ccc(OCCNC(=O)N3CCN(CC(=O)O)CC3)cc2)NC1=O [Conjugate 2-19] ({CH2CO}-[NMeQ][NMehSer](Me)D[NMeQ][Phe(4-COOH)]T(Me)I[AEF]([CO-Piperazinyl(4-CH2COOH)])[NMe2Nal]G[3Pal(6-Ph)][NMeC]-NH2; thioether N-12)
3,0.8 nM,CC[C@H](C)[C@@H]1NC(=O)[C@H]([C@@H](C)OC)NC(=O)[C@H](Cc2ccc(C(=O)O)cc2)NC(=O)[C@H](CCC(N)=O)N(C)C(=O)[C@H](CC(=O)O)NC(=O)[C@H](CCOC)N(C)C(=O)[C@H](CCC(N)=O)N(C)C(=O)CSC[C@@H](C(N)=O)N(C)C(=O)[C@H](Cc2ccc(-c3ccccc3)nc2)NC(=O)CNC(=O)[C@H](Cc2ccc3ccccc3c2)N(C)C(=O)[C@H](Cc2ccc(OCC(=O)N3CCN(CC(=O)O)CC3)cc2)NC1=O [Conjugate 2-22] ({CH2CO}-[NMeQ][NMehSer](Me)D[NMeQ][Phe(4-COOH)]T(Me)IY(CH2CON(CH2CH2)2NCH2COOH)[NMe2Nal]G[3Pal(6-Ph)][NMeC]-NH2; thioether N-12)
